In patent US4783442A, “B-cell differentiating peptides” (Ortho Pharmaceutical Corporation, priority 1986, dated 1988):
Where a SMILES comes first, the peptide text is derived from it.

What was measured:
pro-Lyb-2 cells [1] = assay: Induction assay: Lyb-2 expression (B-cell differentiation); assay type: cell-based, mouse; conditions: 3 hr incubation; compared with natural bursopoietin at the same concentration
Protocol: To determine the activity and immunological characteristics of one of the subject peptide, certain related peptides prepared in the above Examples, and natural bursopoietin, an induction assay was carried out substantially as described in Audhya, et al., Proc. Natl. Acad. Sci. USA, 81,2847 (1984).
In brief, prothymocytes (Thy-1^-) and pro-Lyb-2 cells were coenriched from B6-Lyb-2.1 congenic mouse spleen by bovine serum albumin density gradient centrifugation (Path-O-Cyte 5, lot 35, 1 ml of 35/29/26/23/18/12%). The 26/23 and 23/18 interface layers were combined, and Thy-1^+ and Lyb-2^+ cells were removed by reaction with monoclonal Thy-1.2 and Lyb-2.1 antibodies prepared according to Scheid, et al., Immunogenetics, 9, 423-433 (1979), and adherence to plates coated with affinity-purified rabbit anti-mouse F(ab)2. The washed nonadherent cells were used for both assays. This starting population contained 30-40% prothymocytes and 30-40% pro-Lyb-2 cells (known to represent separate committed precursor populations) as described in Scheid, et al., J. Exp. Med., 147, 1727-1743 (1978).
Cells (5×10^6 cells per 0.5 ml of RPMI 1640 medium) were incubated in 5-ml plastic tubes with equal volumes of test compound in serial dilution in RPMI 1640 medium in a humidified 5% CO2 atmosphere for 3 hr. […]

pro-Lyb-2 cells [2] = conditions: from the referenced articles; cited from earlier work

Compound	activity in differentiation induction assay (FIG. 1) (pro-Lyb-2 cells [1])	induction of differentiation of T-cells and B-cells (pro-Lyb-2 cells [2])
NCCCC[C@H](N)C(=O)N[C@@H](Cc1c[nH]cn1)C(=O)NCC(N)=O [H-LYS-HIS-GLY-NH2, L-Lysyl-L-Histidyl-Glycineamide] (H-Lys-His-Gly-NH2)	possessed the activity of the natural isolate	
ubiquitin		nonselectively induce the differentiation of both T-cells and B-cells
